Test results reported in US20250362302A1, “INTRACELLULAR LIGATION OF PHOTOCATALYSTS FOR PHOTO-RESPONSIVE, PROBE-MEDIATED PROTEIN LABELING” (Seed Therapeutics US, Inc., priority 2022, published 2025).

Assays:
ikaros (IKZF1) = assay: Western blot of IKZF1 in lysates of HALO.CRBN Jurkat cells exposed to pomalidomide or lenalidomide; type: cell-based; conditions: lanes, HALO.CRBN Jurkat cell lysates, compared with control or 1 μM pomalidomide lanes
Excerpt: A stable cell line, using Jurkat cells, was created where native cereblon (CRBN) was knocked out and a fusion of HaloTag protein and CRBN was expressed (referred to herein as “the HALO.CRBN Jurkat cell line”). […] The gel was stained using mouse anti-IKZF1 antibody. The dilution was 1:1000 and the exposure was about 10 seconds.

[1] = tested on: bovine serum albumin (BSA); assay: Catalyst-dependent biotinylation of bovine serum albumin, fluorescent Western blot with anti-biotin antibody; type: biochemical; conditions: labeling reagent WH8 100 uM, BSA 10 uM, catalyst 5 μM and 10 μM, 5 minutes irradiation at 450 nm; no band without irradiation
Description: Photocatalyst was combined with diazirine labeling compounds 8 or 9 and BSA in DPBS to yield reaction mixtures with 200 uL total solution volume. BSA concentration was 10 uM; diazirine labeling compound was fixed as 100 uM; the final catalyst concentration was set as 5 uM and 10 uM respectively. These samples were then either placed in the dark or irradiated with visible (450 nm) light in a M2 photoreactor for 5 minutes at 100% intensity. 60 uL samples were then removed, combined with 20 μL of 4× reducing SDS-Laemmli buffer (with 1:10 1 M DTT), mixed and heated at 95° C. for 5 minutes. 15 μL of each sample was then analyzed by Fluorescent western blot.
The sample was loaded into a 4-20% Tris-Glycine gel (Bio-Rad). Gel was run at 120V for 80 minutes or until the dye front reaches the end of the gel. Proteins were transferred from gel to nitrocellulose membrane using the iBlot 2 semi-dry Transfer apparatus. The membrane was used to detect total protein for normalization which follow the manufacturer's manual (Revert™ 700 Total Protein Stain, LI-COR). After that, the membrane rinsed once with TBST and blocked with h Intercept® Blocking Buffer for 1 hour at RT with gentle shaking. After blocking, membrane was washed with TBST and requisite antibody was added (1:1000) and kept for overnight at 4° C. on a shaker. […]

PI3 Kinase P110α = assay: Photo-responsive labeling within live cells, HALO-tag immunoprecipitation, Western blot with Anti-PI3k antibody; type: cell-based, human; conditions: labeling agent 250 μM, photocatalyst 10 μM, irradiation 450 nm 10 minutes, cell line 021
Description: (§1) Initially, reagents were prepared. An Ir—Cl photocatalyst master stock solution was prepared at 10 mM in 100% DMSO. The specific Ir—Cl photocatalyst used in this example was the photocatalyst prepared in accordance with Example 2. To create a working solution for the Ir—Cl catalyst, a portion of the Ir—Cl catalyst master stock solution was diluted in 1×DPBS, such that the final Ir—Cl catalyst concentration was 10 μM and the DMSO concentration was 0.1%. A labeling agent master stock was also prepared, having a 25 mM concentration in 100% DMSO. The particular labeling agent used was the one prepared in accordance with Example 1. To create a working solution for the labeling agent, a portion of the labeling agent master stock solution was diluted in 1×DPBS, such that the final concentration of labeling agent was 250 μM and the DMSO concentration was 1%.
(§2) A human KRAS (G12DHaloTag®/+) cell line (HD-103-021, Horizon Discovery) with protein reporter was grown to 80-90% confluence. Cells were harvested and pelleted down by centrifuging at 1000 g, for 5 minutes at 4° C. (Eppendorf Centrifuge 5427 R). Supernatant was discarded and the cell pellet was resuspended in ice cold 1×DPBS (Gibco™) and mixed. Subsequently, cells were again pelleted down by centrifuging at 1000 g, for 5 minutes at 4° C. Supernatant was discarded and fresh ice cold 1×DPBS was added to the pellet and mixed. […]

SOS1 = assay: Photo-responsive labeling within live cells, streptavidin bead immunoprecipitation of biotinylated proteins, Western blot with anti-SOS1 antibody; type: cell-based, human; conditions: KRAS (G12DHaloTag/+) protein reporter cells with photocatalyst, labeling partner and irradiation; no distinct band in control cells HD-103-037 and HD-PAR-006
Description: as §1, §2

Halotag-KRAS(G12D) = assay: Halotag chaser assay (TAMRA-Cl) for Ir-photocatalyst cell permeability, fluorescent Western blot; type: cell-based, human
Description: Photo-responsive labeling within cells was carried out as described similar to the procedure as described in Example 11. An Ir-photocatalyst master stock solution was prepared at 10 mM or 5 mM in 100% DMSO. KRAS (G12DHaloTag®/+) cells (HD-103-021, Horizon Discovery) were grown to 90% confluency in 6-well cell culture dishes using phenol-free RPMI1640 media (Gibco™). […] The cells were incubated for 1 or 2 hours at 37° C. The media was then aspirated and cells were gently washed twice with 2 mL fresh RPMI 1640, with an incubation of 10 minutes per wash at 37° C. TAMRA-Cl fluorescent dye (Promega, 68251) was diluted with OptiMEM to a 5 μM working solution. 0.8 mL of the working dye solution was added to the cells, and allowed to incubate for 15 minutes at 37° C. The cells were gently washed twice with 2 mL cold DPBS, aspirated, then added 200 μL RIPA supplemented with protease-phosphatase inhibitor (Halt™ Protease and Phosphatase Inhibitor Cocktail (100×)) and mixed briefly. The cell lysate was collected into 1.5 mL tubes. The cell lysate was sonicated using a probe-sonicator (SONICS vibra-cell Fisher Scientific) with 15 s on, 10 s off, at 30% amplitude for 3 cycles. The cell lysate was centrifuged at 18,000 g at 4° C. for 20 minutes. […] Cell lysates were processed and analyzed by fluorescent Western blot with anti-TAMRA and anti-β-Actin (for normalization) antibodies. […]

Compound	IKZF1 level in Western blot (anti-IKZF1) (ikaros (IKZF1))	biotinylation of BSA (anti-biotin fluorescent Western blot) [1]	PI3 Kinase P110α band after HALO-tag IP (FIG. 4A) (PI3 Kinase P110α)	SOS1 band after streptavidin IP (FIG. 5F) (SOS1)	binding to the Halotag (Halo-chaser assay, anti-TAMRA) (Halotag-KRAS(G12D); FIG. 21A, 1 hour treatment, 5 μM and 10 μM photocatalyst, KRAS (G12DHaloTag/+) cells, compared to DMSO control)	binding to the Halotag (Halo-chaser assay, anti-TAMRA) (Halotag-KRAS(G12D); FIG. 21B, 5 μM photocatalyst)
Nc1cccc2c1C(=O)N(C1CCC(=O)NC1=O)C2=O (centres unmarked) [pomalidomide]	observably less IKZF1	–	–	–	–	–
[N-]=[N+]=Nc1ccc(C(=O)NCCOCCOCCOCCNC(=O)CCCC[C@@H]2SC[C@@H]3NC(=O)N[C@@H]32)cc1 [WH8, 4-azido-N-(13-oxo-17-((3aS,4S,6aR)-2-oxohexahydro-1H-thieno[3,4-d]imidazol-4-yl)-3,6,9-trioxa-12-azaheptadecyl)benzamide]	–	biotinylated BSA bands	distinct band of PI3 Kinase P110α	distinct SOS1 band observed	–	–
Cc1ccnc(-c2cc(CCC(=O)NCCOCCOCCOCCOCCCCCCCl)ccn2)c1.Fc1cc(F)c(-c2ccc(C(F)(F)F)cn2)[c]([Ir+][c]2cc(F)cc(F)c2-c2ccc(C(F)(F)F)cn2)c1 [IR1]	–	–	distinct band of PI3 Kinase P110α	distinct SOS1 band observed	a little less binding to the Halo tag	majority binding
